Measurements reported in patent US20130072506A1, “6,8-DISUBSTITUTED PURINE COMPOSITIONS” (priority 2011, published 2013).

Columns and labels:
[1] = system: Amaranthus caudatus cotyledon/hypocotyl explants; assay: Amaranthus bioassay (betacyanin content); type: in vivo, Amaranthus caudatus var. atropurpurea
Experimental: Testing of Novel Compounds in Amaranthus bioassay. Standard Amaranthus bioassay was performed with several modifications. The seeds of Amaranthus caudatus var. atropurpurea were surface-sterilized in 10% N-chlorobenzene sulfonamide (w/v) for 10 min and washed 5 times in deionized water. They were placed in 14 cm Petri dishes containing paper tissues saturated with deionized water. After 72 hours of cultivation at 25° C. in darkness, the roots of the seedlings were cut off. The explants, consisting of two cotyledons and hypocotyls, were placed in 5 cm Petri dishes on two layers of filter paper soaked in 1 ml of incubation medium containing 10 μmol Na2HPO4—KH2PO4, pH 6.8, 5 μmol tyrosine and the cytokinin to be tested. There were 20 explants per dish. The procedure was carried out under a green safe light in a darkroom. After a 48 hours of incubation at 25° C. in darkness, betacyanin was extracted by freezing the explants in 4 ml 3.33 μM acetic acid. The concentration of betacyanin was determined by comparing the absorbance at 537 nm and 620 nm as follows: DA=A537nm−A620nm. From the obtained data, the concentration with highest activity was selected for each compound tested. Relative activity of the compound at this concentration was calculated (see Table 3 below). […] The values shown in Table 3 are means of five replicates and the entire test was repeated twice.
The cytokinins to be tested were dissolved in dimethylsulfoxide (DMSO) and the solution brought up to 10^−3 M with distilled water.

[2] = system: erytroid leukemia cell line K-562; assay: In vitro cytotoxic activity (metabolisation of Calcein AM); type: cell-based, human; conditions: Homo sapiens, K562, 72 hours, highest concentration tested 100 μM in routine testing
Outline: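 Cells were pre-incubated 24 hours at 2.500-30.000 cells per well, then exposed to six 3-fold dilutions, usually from 100 μM top, for 72 hours at 37° C, 5% CO2, in triplicate. Calcein AM was added at 1 μg/ml final and fluorescence read after 1 hour; GI50 is the concentration halving Calcein AM conversion.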

[3] = system: human skin fibroblast line ASF-2; assay: Cell survival and toxicity (MTT assay); type: cell-based
Experimental: All cell culture experiments were performed on early and mid passage cultures (about 20 to 40% lifespan completed) of normal human skin fibroblast line, designated ASF-2. In order to check the effects of test compounds on senescent cells, late passage cells with more than 90% lifespan completed were used. ASF-2 cell line was established from a mammary skin biopsy obtained from a young, non-smoking and healthy […] at the time of breast reduction operation. Normal culture conditions of medium (DMEM) containing antibiotics, 10% foetal calf serum, and incubation at 37° C. with 95% humidity were used. The effects of the test compounds were determined using the following procedures.
Cell survival, toxicity, and JC-1 staining. Cell survival after exposure to various doses of the test compounds was measured with the 3-(4,5 dimethylthiazol-2-yl)-2,5-diphenyltetrazolium bromide (MTT) assay. About 5,000 cells were seeded per well in a 96-well plate 24 h before the experiment. Cells were then treated with various doses of the compound to be tested. The wells were washed in Hank's and new medium was added. After three days, MTT (Sigma, M2128) was added at 0.5 mg/ml in medium. After 4 h, MTT was collected and then dissolved in isopropanol and HCl over a 12-16 h period. The absorbance at 595 nm was measured.

**Q.** Which “Activity (%)” value ([1]; at concentration with highest activity, activity of kinetin set at 100%) does the source give for Nc1nc2c(NCc3ccco3)ncnc2[nH]1 [Compound 82, 6-furfurylamino-8-aminopurine] here?
**A.** 147.45%

**Q.** And the “Concentration with highest activity” value ([1]; betacyanin content, 48 hours in darkness)?
**A.** 10^−4 mol/l

**Q.** And the GI50 [2]?
**A.** 68.2 µM

**Q.** And the reduction in survival ([3]; 100 μM, MTT)?
**A.** 15%

**Q.** And the cell survival ([3]; 500 μM, MTT)?
**A.** reduction in cell survival

**Q.** And the “toxic effects (MTT)” value ([3]; young fibroblasts, until a dose of 100 μM)?
**A.** little toxic effects
